Experimental findings from US20140274766A1, “METHODS OF USING F-SPONDIN AS A BIOMARKER FOR CARTILAGE DEGENERATIVE CONDITIONS AND BONE DISEASES” (priority 2009, published 2014) are described below.

The subject of data set [1] is cartilage explants. The experiment in a line: Effect of PGE2 on cartilage explants. The following applies: PGE2 1-10 uM. The class given is cell-based, human. How it is done:
(§1) F-spondin induced both catabolic and anabolic gene/gene products in chondrocytes including BMP-2, type II collagen, TGF-β1, COX-2, mPGES and PGE2. To begin to address the question of whether selected F-spondin effects in cartilage are mediated by prostaglandin production, we have begun studies to characterize the effect of PGE2 in cartilage. Addition of PGE2 (1-10 uM) to cartilage explants inhibited type II collagen, aggrecan expression, ^35SO4 incorporation, as well as increased type II collagen degradation as assessed by C12C ELISA (IBEX). […] Relative to normals, NURR1 was overexpressed in OA cartilage (2-5 fold) and synovium (2 fold), confirmed by QPCR. Incubation of OA chondrocytes with PGE2 (1-10 uM) induced NURR1 expression (20-50 fold), as analyzed by QPCR. Since NURR1 binds to the NURR1 cis-acting sequence (NBRE) in the promoter region of a variety of genes, we examined the effect of adenoviral-mediated over-expression of NURR1 in chondrocytes.

The test system of data set [2] is F-spondin expression in human chondrocytes. The experiment in a line: Induction of F-spondin expression in human chondrocytes, TaqMan quantitative PCR. The class given is cell-based. From the text:
In another particular embodiment, the candidate compound is further tested for an effect in an animal model for arthritis, or a cartilage degenerative condition, wherein said arthritis or cartilage degenerative condition is characterized by elevated levels of F-spondin. Examples of animal models for studying arthritis and cartilage degenerative conditions may be found in the following publications, which are incorporated in their entireties: Ameye, L. G. et al., Current Opinion in Rheumatology (2006), 18(5):537-547; Warskyj, M. and Hukins, D W, Br. J. of Rheumatology (1990), 29:219-221; Bolter, S. M. et al., Biorheology, (2006), 43(3-4):379-388; Carlson, C. S. et al., J. Bone Miner. Res. (1996), September; 11(9):1209-1217; Moreau, M. et al., J. Rheumatology (2006), June; 33(6):1176-1183; Laurent, D. et al. Skeletal Radiol., (2006), August; 35(8):555-564; Hotta, H. et al. J. Orthop. Sci. (2005), November; 10(6):595-607; Mastbergen, S. C. et al. Rheumatology (Oxford), (2006), April; 45(4):405-413; and Mastbergen, S. C. et al., Osteoarthritis Cartilage (2006), January; 14(1):39-46. Chambers M. G. et al., Arthritis and Rheumatism (2001) June 44(6):1455-1465. In another particular embodiment, the potential inducers of F-spondin in cartilage/chondrocytes for use in a therapeutic setting may be selected from the group consisting of prostaglandin E2 (PGE2), cAMP inducers, Bone morphogenic protein 2 (BMP-2), Insulin-like growth factor (IGF), Fibroblast growth factor basic (FGFbasic) and Transforming Growth factor b1 (TGF-b1). […] Accordingly, it is envisioned that these agents may be used for treating conditions as described herein.
(Real-time PCR tracks product formation cycle by cycle.)

Data set [3] relates to OA chondrocytes. The experiment in a line: Effect of PGE2 on chondrocytes (secretion, NURR1 QPCR). The class given is cell-based, human. As to the method:
as §1

In data set [4] the test system is bone marrow-derived MSCs. The experiment in a line: Chondrogenesis of bone marrow-derived MSC aggregate cultures. The following applies: for staining for proteoglycan, type II and type X collagen: 21 d aggregates, adenoviral expression 50 ng/ml; for chondrogenesis in aggregate cultures: adult bone marrow-derived MSCs. The class given is cell-based. How it is done: FIG. 6: Chondrogenesis of postnatal MSCs following exposure to TGF-β and BMP-2. Bone marrow-derived MSCs were modified to express 50 ng/ml BMP-2 or TGF-β1 using first generation recombinant adenoviral vectors and seeded into high density aggregates. After 21 d, aggregates were fixed, sectioned and stained for the presence of chondrogenic markers using toluidine blue (proteoglycan) and immunostaining for type II and X collagen. This pattern was consistent over three experiments.
Upon histological examination important differences between TGF-β1 and BMP-2-treated cultures were noted (FIG. 6). […] We propose to extend these studies further, in order to more fully characterize extracellular matrix protein expression during chondrocyte maturation and the relationship to F-spondin, by comparing the effects of various chondroinductive factors.

Data set [5] concerns chick sternal chondrocytes. Kind of data set: Retinoic acid induced maturation of chick sternal chondrocytes (RT-PCR, AP staining). The class given is cell-based. As to the method: FIGS. 21A and 21B. […] Upper sternal chondrocytes were exposed to 0, 10, 35 or 100 nM retinoic acid (RA) for 5 days in culture. […] (B) Relative gene expression levels of chondrocyte maturation markers were determined by semi-quantitative RT-PCR of RNA harvested from parallel cultures. Values represent mean±std deviation for triplicate samples.
Chondrocytes were isolated from the cephalic and caudal portion of day 14 chick embryo sterna as described by (Teixeira C C, Shapiro I M, Hatori M, Rajpurohit R, Koch C. Retinoic acid modulation of glutathione and cysteine metabolism in chondrocytes. Biochem J 1996; 314 (Pt 1):21-6). After 5 days of primary culture, chondrocytes were separated from the attached fibroblasts, harvested by centrifugation, counted, and plated in tissue culture dishes in complete medium supplemented with hyaluronidase (4-units/ml) to promote attachment. After becoming confluent, and to induce maturation, cells were treated daily with all-trans retinoic acid (35-100 nM) (Sigma) in the presence of ascorbate-2-phosphate (100 μM) for 1 week. Control cultures were treated with an equal volume of vehicle. Cultures were provided with β-glycerophosphate (5 mM) to serve as phosphate donor. For transfections, chondrocytes were transiently transfected with a plasmid encoding full length F-spondin cDNA under control of a CMV promoter, 1 day after plating in monolayer culture, using the FuGene 6 Transfection Reagent (Roche, Nutley, N.J.) according to the manufacturer's specifications. Parallel transfections with a CMV-GFP plasmid was used as a null control and to estimate transfection efficiency.
To investigate the role of F-spondin in chondrocyte maturation, we used an in vitro model in which chick sternal chondrocytes mimic growth plate chondrocytes and undergo terminal differentiation in response to RA treatment. […] Chick chondrocytes were stimulated with increasing doses of RA (10-100 nm) and harvested for gene expression analysis by qPCR after 5 days. The relative gene expression of type X collagen (ColX), alkaline phosphatae (AP), MMP-13, and F-spondin were assessed with increasing maturation on RA stimulation (FIG. 14).
Chondrocytes were isolated from the cephalic (upper) portion of 14 day old chick embryo sterna as previously described (Teixeira, C. C., et al. (1995) Calcif Tissue Int 56:252-56).^15. After 5 days of primary culture, floating chondrocytes were separated from the attached fibroblasts, and plated in tissue culture dishes in DMEM supplemented with 10% FBS and hyaluronidase (4-units/ml) to promote attachment. At confluence, differentiation was induced by daily treatment with all-trans retinoic acid (RA) from 0.1% v/v aliquots of a 1000-fold stock solution in 95% ethanol. Final concentrations ranged from 10 to 100 nM. To examine the effect of F-spondin overexpression, cultures were transfected at 70-80% confluence, with either full length (pFSI), truncated (pFS6) F-spondin cDNAs or control vector pcDNA3 (Invitrogen) using GenePorter transfection reagent (Genlantis, San Diego, Calif.). Differentiation was induced by daily treatments with 100 nM RA, which were initiated the following day. For F-spondin inhibition studies, a TSR domain specific F-spondin antibody (R1), or a spondin domain specific F-spondin antibody (R4) (R1 and R4 antibodies were provided by Dr. Avihu Klar (Hebrew University, Jerusalem, Israel), were added to chondrocyte cultures (1:100 dilution), every other day 1 h prior to RA treatment.
Different regions of the chick growth plate were visually identified and dissected into separate tubes, frozen in liquid nitrogen and crushed. Total RNA was extracted using Trizol® reagent (Life Technologies, Gaitherburg, Md.) per manufacturer's instructions.

Take `CCCCC[C@H](O)/C=C/[C@H]1[C@H](O)CC(=O)[C@@H]1C/C=C\CCCC(=O)O` [PGE2, prostaglandin E2]: in data set [1], the 35SO4 incorporation entry is on record as “inhibited”, the aggrecan expression result was “inhibited”, the “type II collagen degradation (C12C ELISA)” value is on record as “increased” and the “type II collagen expression” value was “inhibited”. In data set [2], the F-spondin expression entry is listed as “induced F-spondin expression”. In addition, the “induction of NURR1 expression” value in data set [3] (OA chondrocytes, PGE2 1-10 uM, QPCR) is 20-50 fold. For the same molecule, in data set [3] (chondrocytes), the MMP-1 secretion entry is “decreased”, the “secretion of IL-6” value was “increased”, the “secretion of IL-8” value was “increased” and the “secretion of MMP-13” value was “increased”.
For the molecule “TGF-β1: Transforming growth factor-beta 1”, in data set [4], the “staining for proteoglycan, type II and type X collagen” value is given as “generally lower”; the “chondrogenesis in aggregate cultures” value was “undergo chondrogenesis”. The F-spondin expression entry in data set [2] is “induced F-spondin expression”.
With “FGF basic: Fibroblast growth factor basic”, the F-spondin expression entry in data set [2] is reported as “induced F-spondin expression”.
As to `CC1=C(/C=C/C(C)=C/C=C/C(C)=C/C(=O)O)C(C)(C)CCC1` [RA, all-trans retinoic acid], the “F-spondin expression relative to controls” value in data set [5] (100 nM RA, 5 days, p=0.04) is given as “approximately 3 fold”. In addition, in data set [5] (RA 0-100 nM, 5 days, RT-PCR), the MMP-13 expression result is given as “increased”, the VEGF expression entry is given as “increased”, the “type I collagen expression” value is given as “pronounced upregulation” and the “type II collagen expression” value was “marked downregulation”. Besides, the “type X collagen expression” value in data set [5] (RA 0-100 nM, 5 days, RT-PCR) is on record as “did not increase”. Also, the “AP activity (red staining)” value in data set [5] (RA 0-100 nm, 5 days) is given as “dose dependant increase”. Also, in data set [5] (RA 10-100 nm, 5 days, vs non-stimulated controls), the “increase in F-spondin gene expression” value is on record as 2- to 4 fold. Further, the “upregulation of F-spondin following RA treatment” value in data set [5] (chick sternal model, p<0.05) was found to be 3.5 fold.

B1: BMP-2: protein that induces the formation of bone and cartilage (protein, listed as Homo sapiens)
chain: MVAGTRCLLALLLPQVLLGGAAGLVPELGRRKFAAASSGRPSSQPSDEVLSEFELRLLSMFGLKQRPTPSRDAVVPPYMLDLYRRHSGQPGSPAPDHRLERAASRANTVRSFHHEESLEELPETSGKTTRRFFFNLSSIPTEEFITSAELQVFREQMQDALGNNSSFHHRINIYEIIKPATANSKFPVTRLLDTRLVNQNASRWESFDVTPAVMRWTAQGHANHGFVVEVAHLEEKQGVSKRHVRISRSLHQDEHSWSQIRPLLVTFGHDGKGHPLHKREKRQAKHKQRKRLKSSCKRHPLYVDFSDVGWNDWIVAPPGYHAFYCHGECPFPLADHLNSTNHAIVQTLVNSVNSKIPKACCVPTELSAISMLYLDENEKVVLKNYQDMVVEGCGCR
For the molecule B1, in data set [4], the “staining for proteoglycan, type II and type X collagen” value is “more intense staining”; the “chondrogenesis in aggregate cultures” value is “undergo chondrogenesis”. In data set [2], the F-spondin expression result is “induced F-spondin expression”.
